This is an account of results in patent publication US8063108B2, “Method for modulating microbial quorum sensing” (priority 2004, dated 2011).

Molecules are shown by their SMILES.

Format in all cases: cell-based
Assay [1] addresses T1, TraR (Agrobacterium tumefaciens, UniProt P33905).
T1 construct: expressed in transfected cells; host or cells: Agrobacterium tumefaciens KYC55
The experiment in a line: Agrobacterium tumefaciens KYC55 β-Galactosidase induction plate assay. As to conditions: 1 μl of 0.1 mg/ml spotted. How it is done: (§1) Additional screens were performed as described above, except fluorescence was measured using the Wallac Victor2 plate reader with an excitation wavelength of 485 nm and emission detection at 515 nm. E. coli reporter induction assays were performed as described for P. putida. Chromobacterium violaceum CV026 and Agrobacterium tumefaciens KYC55 induction assays were performed by applying compounds to a lawn of bacteria on agar plates. C. violaceum CV026 inhibition assays were performed by applying compounds to a lawn of bacteria on agar plates containing synthetic N-3-oxohexanoyl-L-homoserine lactone.
Agrobacterium tumefaciens KYC55 is a mutant strain that is unable to produce AHLs. Exogenous AHLs must be added to induce the LuxR-type transcriptional regulator which is designated TraR in this strain. This strain contains a plasmid that encodes β-Galactosidase under the transcriptional control of TraR. Activation of TraR is indicated by the production of β-Galactosidase. Cultures were grown overnight at 28° C. in AMA broth. Induction assays were performed by applying compounds to a lawn of bacteria on AMA agar plates containing […] of X-Gal per ml. […] Activation of quorum sensing was qualitatively measured by observing the production the blue pigment that results from β-Galactosidase cleavage of the X-gal substrate in areas where compounds were applied. […]

For assay [2], the target named is T2, CviR (Chromobacterium violaceum, UniProt D3W065).
T2 construct: endogenous in cells; host or cells: Chromobacterium violaceum CV026
T2 sequence (D3W065 1-265): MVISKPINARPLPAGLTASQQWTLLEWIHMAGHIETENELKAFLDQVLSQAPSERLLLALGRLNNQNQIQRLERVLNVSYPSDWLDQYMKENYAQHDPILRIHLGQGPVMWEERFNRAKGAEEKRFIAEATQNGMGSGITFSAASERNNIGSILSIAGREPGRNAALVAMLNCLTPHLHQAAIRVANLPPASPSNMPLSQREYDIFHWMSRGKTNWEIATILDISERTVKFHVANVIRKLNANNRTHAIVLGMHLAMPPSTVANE
The experiment in a line: Chromobacterium violaceum CV026 violacein plate assay. As to conditions: 1 μl of 0.1 mg/ml spotted. How it is done:
as §1
Chromobacterium violaceum CV026 is a mutant that is unable to produce AHLs. Exogenous AHLs must be added to induce the LuxR-type transcriptional regulator which is designated CviR in this strain. Activation of CviR is indicated by the production of violacein. Cultures were grown overnight at 28° C. in LB media. […] Inhibition of quorum sensing was qualitatively measured by observing the lack of production of violacein in areas where compounds were applied. […] Activation of quorum sensing was qualitatively measured by observing the production of violacein in areas where compounds were applied. […]

In assay [3] the target is T3, LasR transcriptional activator (Pseudomonas aeruginosa, UniProt P25084).
T3 construct: expressed in transfected cells; host or cells: Pseudomonas putida F117 carrying plasmid pKRC12 (lasR, PlasB-gfp)
T3 sequence (P25084 whole entry): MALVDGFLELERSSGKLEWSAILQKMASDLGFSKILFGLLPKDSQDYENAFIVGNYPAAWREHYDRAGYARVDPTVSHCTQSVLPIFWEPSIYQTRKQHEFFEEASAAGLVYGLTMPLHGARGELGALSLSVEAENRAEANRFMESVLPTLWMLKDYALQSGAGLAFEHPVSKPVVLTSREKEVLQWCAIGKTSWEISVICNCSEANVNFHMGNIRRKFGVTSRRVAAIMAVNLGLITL
The experiment in a line: P. putida F117 pKRC12 lasB-GFP reporter assay (secondary screens). As to conditions: compounds 10 μM, relative fluorescence (fluorescence divided by absorbance at 600 nm) as percent of AHL induced control; for % Activity of AHL Standard, 3 oxo C10HSL: 3oxoC10HSL 100 nM; for % Activity of AHL Standard, 3 oxo C12HSL: 3oxoC12HSL 50 nM. The method, then:
Additional screens were performed similar to screen described in the initial screen, except assays were performed in 96-well microtiter plates at a total volume of 100 μl. The reporter strain P. putida F117 pKRC12 was grown overnight at 28° C. in LB media, diluted with LB media to achieve an optical density of 0.05 at 600 nm (OD600), and 96 μl of cells were aliquoted to 96-well plates. Compounds were added at a final concentration of 100 nm or as otherwise indicated in each experiment and the bacterial cells were incubated with the compounds for approximately 30 minutes prior to the addition of 3oxoC10HSL or 3oxoC12HSL at a final concentration of 100 nM and 50 nM respectively or as indicated for each experiment. Fluorescence was measured at regular intervals after 3 hours using the Wallac Victor2 plate reader with an excitation wavelength of 485 nm and emission detection at 515 nm. Representative results are presented in FIGS. 6A and B and present the percentage of GFP expression activity as a function of expression of the AHL (3oxoC10 HSL) control. The numbers on the X axis refer to the Chembridge library reference number. Effects on growth of the antagonists were determined by measuring the optical density at 600 nm of growing bacterial cultures P. putida F 117 pKRC 12. […] (Reference for P. putida F117 pKRC12: Steidle, A., K. Sigl, R. Schuhegger, A. Ihring, M. Schmid, S. Gantner, M. Stoffels, K. Riedel, M. Givskov, A. Hartmann, C. Langebartels, and L. Eberl. 2001. Visualization of N-acylhomoserine lactone-mediated cell-cell communication between bacteria colonizing the tomato rhizosphere. Appl Environ Microbiol 67:5761-70). […]
This example presents representative results of experiments designed to test the activity of putative antagonists when challenged with different concentrations of synthetic AHLs, particularly 3oxoC12HSL. Assays were conducted with P. putida F117 pKRC12 reporter strain as described in the methods for secondary screens.
Following the initial screens to identify strong antagonists of the LasR transcriptional activator, further investigation of additional compounds in the Chembridge library was carried out. In particular, the experiments described in Example 1 identified three compounds that shared a thiocarbamate structure, as also shown in FIG. 16. To further investigate structure-activity relationships, the inventors examined the antagonist activity of 19 additional compounds with related thiocarbamate structures, using the procedures described in Example 1. The results are presented in Table 4, expressed as the percent activity of the AHL induced control. The % activity represents the relative fluorescence, which is the fluorescence observed in each assay divided by bacterial cell density as measured by absorbance at 600 nm. Compounds were assayed at a concentration of 10 μM. Assays were conducted with P. putida F117 pKRC12 reporter strain as described in the methods for secondary screens. The 3oxoC10HSL and 3oxoC12HSL were assayed at concentrations of 100 nM and 50 nM, respectively.
On the technique in general: In a reporter assay the amount or activity of a reporter protein is the signal.

T1 sequence (P33905 whole entry): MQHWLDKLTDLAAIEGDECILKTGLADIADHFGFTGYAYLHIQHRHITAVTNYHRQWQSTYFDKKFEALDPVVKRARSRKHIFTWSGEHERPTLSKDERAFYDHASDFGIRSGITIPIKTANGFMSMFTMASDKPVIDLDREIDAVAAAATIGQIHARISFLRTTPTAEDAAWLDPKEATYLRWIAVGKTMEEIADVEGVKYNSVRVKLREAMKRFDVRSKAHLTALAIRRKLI

In the case of `CCCC(=O)CC(=O)N[C@H]1CCOC1=O` [Compound 3oxoC6HSL, N-(3-oxohexanoyl)-L-homoserine lactone], the “Induction of β-Galactosidase (blue zone), control” value in assay [1] was “activated gene expression”. For the same molecule, in assay [2], the “Activation of quorum sensing (violacein production), control” value is “activated gene expression”.
For the molecule `NC(=O)SCC(=O)Nc1ccccc1Cl` [Compound 8], in assay [3], the “% Activity of AHL Standard, 3 oxo C10HSL” value turned out to be 32.72% and the “% Activity of AHL Standard, 3 oxo C12HSL” value came to 51.98%.
Take `COc1cccc(NC(=O)CSC(N)=O)c1` [Compound 9]: in assay [3], the “% Activity of AHL Standard, 3 oxo C10HSL” value turned out to be 35.50% and the “% Activity of AHL Standard, 3 oxo C12HSL” value is on record as 53.30%.
Regarding `Cc1cccc(NC(=O)CSC(N)=O)c1` [Compound 10], in assay [3], the “% Activity of AHL Standard, 3 oxo C10HSL” value came to 49.10% and the “% Activity of AHL Standard, 3 oxo C12HSL” value came to 55.40%.
On the same counts, the results for `NC(=O)SCC(=O)Nc1ccccc1Br` [Compound 11] are 36.60% and 56.70%.
`CC(=O)c1ccc(NC(=O)CSC(N)=O)cc1` [Compound 12]: in assay [3], the “% Activity of AHL Standard, 3 oxo C10HSL” value came out at 59.20% and the “% Activity of AHL Standard, 3 oxo C12HSL” value is 64.90%.
In the case of `NC(=O)SCC(=O)Nc1cccc(F)c1` [Compound 13], in assay [3], the “% Activity of AHL Standard, 3 oxo C10HSL” value was 33.60% and the “% Activity of AHL Standard, 3 oxo C12HSL” value was 67.60%.
The matching figures for `COc1ccccc1NC(=O)CSC(N)=O` [Compound 14]: 46.80% and 68.60%.
As to `NC(=O)SCC(=O)Nc1ccc(Br)cc1` [Compound 15], in assay [3], the “% Activity of AHL Standard, 3 oxo C10HSL” value is 39.00% and the “% Activity of AHL Standard, 3 oxo C12HSL” value is listed as 70.10%.
The matching figures for `COc1ccc(NC(=O)CSC(N)=O)c(OC)c1` [Compound 16]: 35.00% and 70.90%.
As to `NC(=O)SCC(=O)Nc1cccc(I)c1` [Compound 17], in assay [3], the “% Activity of AHL Standard, 3 oxo C10HSL” value was found to be 67.20% and the “% Activity of AHL Standard, 3 oxo C12HSL” value amounted to 81.20%.
On the same counts, the results for `Cc1ccc(NC(=O)CSC(N)=O)c(C)c1` [Compound 18] are 40.00% and 82.30%.
On the same counts, the results for `NC(=O)SCC(=O)Nc1ccccc1O` [Compound 19] are 38.60% and 82.90%.
As to `NC(=O)SCC(=O)Nc1ccc(Cl)c(Cl)c1` [Compound 20], in assay [3], the “% Activity of AHL Standard, 3 oxo C10HSL” value is 40.50% and the “% Activity of AHL Standard, 3 oxo C12HSL” value is 87.70%.
On the same counts, the results for `NC(=O)SCC(=O)Nc1cccc(Cl)c1` [Compound 21] are 43.30% and 88.50%.
With `COC(=O)c1ccc(NC(=O)CSC(N)=O)cc1` [Compound 22], in assay [3], the “% Activity of AHL Standard, 3 oxo C10HSL” value was determined as 57.60% and the “% Activity of AHL Standard, 3 oxo C12HSL” value worked out at 101.0%.
